Results: ChEMBL document CHEMBL1221225, “A small molecule that directs differentiation of human ESCs into the pancreatic lineage” (Nat Chem Biol, 2009)
Calls of active or inactive are those of the source. The calls are words filed in the database; no cut-off is given here.

How the values were obtained:
Mus musculus [1] = organism: Mus musculus; assay: Induction of nestin expression in CD1 nude mouse ectoderm at 300 nM after 4 days by fluorescent confocal microscopy; assay type: functional, tissue-based
Intestine [2] = assay: Induction of CDX2 expression in CD1 nude mouse intestine at 300 nM after 4 days by fluorescent confocal microscopy; assay type: functional, tissue-based
Liver = assay: Induction of Albumin expression in CD1 nude mouse liver at 300 nM after 4 days by fluorescent confocal microscopy; assay type: functional, tissue-based
[3] = Induction of human GTE cells differentiation into pancreatic lineage assessed as increase in Pdx1-expressing cells at 300 nM after 4 days by immunocytochemistry pregrown in medium with FGF10 and KAAD-cyclopamine (Rvb (DMSO) = 2.8+/-0.6%); assay type: functional
Mus musculus [4] = organism: Mus musculus; assay: Induction of mouse AV3 Pdx1-expressing cell differentiation assessed as increase in SOX9 expression at 300 nM after 6 days by immunohistochemistry pretreated with 1000 ng/ml recombinant mouse Nodal for 5 days; assay type: functional
AV3 [5] = assay: Induction of mouse AV3 cell differentiation into pancreatic lineage assessed as increase in ptf1a mRNA expression at 300 nM after 6 days by RT-PCR analysis pretreated with 1000 ng/ml recombinant mouse Nodal for 5 days; assay type: functional, cell-based
AV3 [6] = assay: Induction of mouse AV3 cell differentiation into pancreatic lineage assessed as increase in Foxa2 mRNA expression at 300 nM after 6 days by RT-PCR analysis pretreated with 1000 ng/ml recombinant mouse Nodal for 5 days; assay type: functional, cell-based
[7] = Inhibition of PKC signaling in human HUES8 cells assessed as decrease in Pdx1-expressing cells at 1 uM after 4 days cells pregrown in medium with Wnt3a, activin A, FGF10, KAAD-cyclopamine and retinoic acid in presence of 10 uM Go 6983 by immunocytochemistry (reference value: 26.9+/-2.8%); assay type: cell-based
[8] = Induction of human HUES8 cell differentiation into pancreatic progenitor cells assessed as increase in Pdx1-expression in cells pregrown with medium containing Wnt, activin, FGF10, KAAD-cyclopamine and retinoic acid at 300 nM after 4 days by Opera high content screening system relative to control; assay type: functional
Stomach = assay: Induction of BARX1 expression in CD1 nude mouse stomach at 300 nM after 4 days by fluorescent confocal microscopy; assay type: functional, tissue-based
HUES8 [9] = assay: Induction of human HUES8 cell differentiation into pancreatic progenitor cell assessed as increase in HNF6 mRNA expression at 300 nM after 4 days by RT-PCR analysis cells pregrown in medium containing Wnt, activin, FGF10, KAAD-cyclopamine and retinoic acid; assay type: functional, cell-based
[10] = Induction of human HUES8 cell differentiation into pancreatic progenitor cell assessed as PTF1A expression in cells pregrown in medium containing Wnt, activin, FGF10, KAAD-cyclopamine and retinoic acid at 300 nM after 4 days by immunocytochemistry relative to control; assay type: functional
Mus musculus [11] = organism: Mus musculus; assay: Induction of SOX7 expression in CD1 nude mouse extra-embryonic endoderm at 300 nM after 4 days by fluorescent confocal microscopy; assay type: functional, tissue-based
[12] = Induction of insulin production in differentiated human HUES8 cells at 300 nM after 4 days by immunocytochemistry (reference value: 0%); assay type: functional
[13] = Induction of human HUES8 cell differentiation into pancreatic progenitor cell assessed as FOXA2 expression in cells pregrown in medium containing Wnt, activin, FGF10, KAAD-cyclopamine and retinoic acid at 300 nM after 4 days by immunocytochemistry relative to control; assay type: functional
[14] = Induction of cell proliferation in human HUES8 Pdx1 expressing cells assessed as expression of Ki67 at 300 nM after 4 days by immunocytochemistry; assay type: functional
AV3 [15] = assay: Induction of mouse AV3 cell differentiation into pancreatic lineage assessed as increase in Pdx1 mRNA expression at 300 nM after 6 days by RT-PCR analysis pretreated with 1000 ng/ml recombinant mouse Nodal for 5 days; assay type: functional, cell-based
Heart = assay: Induction of Troponin T expression in CD1 nude mouse heart at 300 nM after 4 days by fluorescent confocal microscopy; assay type: functional, tissue-based
Intestine [16] = assay: Induction of CES2 expression in CD1 nude mouse intestine at 300 nM after 4 days by fluorescent confocal microscopy; assay type: functional, tissue-based
HUES8 [17] = assay: Induction of human HUES8 cell differentiation into pancreatic progenitor cell assessed as increase in Pdx1 mRNA expression at 300 nM after 4 days by RT-PCR analysis cells pregrown in medium containing Wnt, activin, FGF10, KAAD-cyclopamine and retinoic acid; assay type: functional, cell-based
HUES8 [18] = assay: Induction of human HUES8 cell differentiation into pancreatic progenitor cell assessed as increase in PROX1 mRNA expression at 300 nM after 4 days by RT-PCR analysis cells pregrown in medium containing Wnt, activin, FGF10, KAAD-cyclopamine and retinoic acid; assay type: functional, cell-based
Homo sapiens [19] = organism: Homo sapiens; assay: Induction of human HUES4 cell differentiation into pancreatic progenitor cells assessed as increase in Pdx1-expression in cells pregrown with medium containing Wnt, activin, FGF10, KAAD-cyclopamine and retinoic acid at 300 nM after 4 days by Opera high content screening system relative to control; assay type: functional, cell-based
[20] = Induction of human HUES9 cell differentiation into pancreatic lineage assessed as increase in Pdx1-expression in cells pregrown with medium containing Wnt, activin, FGF10, KAAD-cyclopamine and retinoic acid at 1 uM after 4 days by Opera high content screening system; assay type: functional
AV3 [21] = assay: Induction of mouse AV3 cell differentiation into pancreatic lineage assessed as increase in Nkx2.2 mRNA expression at 300 nM after 6 days by RT-PCR analysis pretreated with 1000 ng/ml recombinant mouse Nodal for 5 days; assay type: functional, cell-based
[22] = Induction of human HUES8 differentiation into pancreatic lineage assessed as increase in DBA-positive exocrine cells at 300 nM after 4 days by RT-PCR (reference value: 0.8+/-0.2%); assay type: functional
Homo sapiens [23] = organism: Homo sapiens; assay: Induction of human HUES8 differentiation into pancreatic lineage assessed as increase in somatostatin-producing endocrine cells at 300 nM after 4 days by immunostaining; assay type: functional
Homo sapiens [24] = organism: Homo sapiens; assay: Induction of C-peptide release in human HUES8 insulin-producing cell at 300 nM after 4 days by ELISA; assay type: functional
[25] = Induction of human HUES8 cell differentiation into pancreatic progenitor cell assessed as HNF6 expression in cells pregrown in medium containing Wnt, activin, FGF10, KAAD-cyclopamine and retinoic acid at 300 nM after 4 days by immunocytochemistry relative to control; assay type: functional
HUES8 [26] = assay: Induction of human HUES8 cell differentiation into endocrine progenitor cell assessed as increase in NKX2.2 mRNA expression at 300 nM after 4 days by RT-PCR analysis cells pregrown in medium containing Wnt, activin, FGF10, KAAD-cyclopamine and retinoic acid; assay type: functional, cell-based
Mus musculus [27] = organism: Mus musculus; assay: Induction of desmin expression in CD1 nude mouse mesoderm at 300 nM after 4 days by fluorescent confocal microscopy; assay type: functional, tissue-based
AV3 [28] = assay: Induction of mouse AV3 cell differentiation into pancreatic lineage assessed as increase in Hnf6 mRNA expression at 300 nM after 6 days by RT-PCR analysis pretreated with 1000 ng/ml recombinant mouse Nodal for 5 days; assay type: functional, cell-based

**Q.** For `CC(C)[C@H]1C(=O)N[C@H](CO)Cc2c[nH]c3cccc(c23)N1C` [INDOLACTUM], which Activity (Mus musculus [1]) is on record?
**A.** Its Activity is “inactive”.

**Q.** And the Activity (Intestine [2])?
**A.** Its Activity is “inactive”.

**Q.** What about the Activity (Liver) of the same compound?
**A.** Its Activity is “inactive”.

**Q.** And the Activity [3]?
**A.** Its Activity is 21.5%.

**Q.** What about the Activity (Mus musculus [4]) of the same compound?
**A.** Its Activity is “Active”.

**Q.** What about the Activity (AV3 [5]) of the same compound?
**A.** The Activity was “Active”.

**Q.** And the Activity (AV3 [6])?
**A.** Its Activity is “Active”.

**Q.** What about the inhibition [7] of the same compound?
**A.** Its inhibition is 0.8%.

**Q.** And the Activity [8]?
**A.** Its Activity is 26.9%.

**Q.** What about the Activity (Stomach) of the same compound?
**A.** Its Activity is “inactive”.

**Q.** And the Activity (HUES8 [9])?
**A.** The Activity was “Active”.

**Q.** What about the Activity [10] of the same compound?
**A.** The Activity was 90.1%.

**Q.** What about the Activity (Mus musculus [11]) of the same compound?
**A.** The Activity was “inactive”.

**Q.** What about the Activity [12] of the same compound?
**A.** Its Activity is 0.5%.

**Q.** And the Activity [13]?
**A.** The Activity was 99.5%.

**Q.** And the Activity [14]?
**A.** The Activity was 0.1%.

**Q.** And the Activity (AV3 [15])?
**A.** The Activity was “Active”.

**Q.** What about the Activity (Heart) of the same compound?
**A.** The Activity was “inactive”.

**Q.** And the Activity (Intestine [16])?
**A.** Its Activity is “inactive”.

**Q.** And the Activity (HUES8 [17])?
**A.** The Activity was “Active”.

**Q.** And the Activity (HUES8 [18])?
**A.** The Activity was “Active”.

**Q.** And the Activity (Homo sapiens [19])?
**A.** Its Activity is “Active”.

**Q.** And the Activity [20]?
**A.** Its Activity is 10.9%.

**Q.** What about the Activity (AV3 [21]) of the same compound?
**A.** The Activity was “Active”.

**Q.** What about the Activity [22] of the same compound?
**A.** The Activity was 3.6%.

**Q.** And the Activity (Homo sapiens [23])?
**A.** Its Activity is “Active”.

**Q.** What about the Activity (Homo sapiens [24]) of the same compound?
**A.** The Activity was “Active”.

**Q.** What about the Activity [25] of the same compound?
**A.** Its Activity is 91.3%.

**Q.** What about the Activity (HUES8 [26]) of the same compound?
**A.** Its Activity is “Active”.

**Q.** And the Activity (Mus musculus [27])?
**A.** The Activity was “inactive”.

**Q.** And the Activity (AV3 [28])?
**A.** Its Activity is “Active”.
